Laboratory results: patent US10258602B2 (Ocera Therapeutics, Inc., priority 2007, dated 2019)
Where two headings read alike, the source gives them in different places.

Assays:
[1] = molecular target: GHS-R1a receptor (human ghrelin receptor) (Homo sapiens, UniProt Q92847); assay: Aequorin functional assay (ghrelin receptor), standard method B; assay type: cell-based
Excerpt: B. Aequorin Functional Assay (Ghrelin Receptor)
See also U.S. patent application Ser. Nos. 11/149,512 and 11/149,731. (LePoul, E.; et al. J. Biomol. Screen. 2002, 7, 57-65; Bednarek, M. A.; et al. J. Med. Chem. 2000, 43, 4370-4376; Palucki, B. L.; et al. Bioorg. Med. Chem. Lett. 2001, 11, 1955-1957.) Functional activity at the gherlin receptor for representative compounds of the present invention is presented in the Examples.

[2] = molecular target: human growth hormone secretagogue receptor (hGHS-R1a) (Homo sapiens, UniProt Q92847); assay: Competitive radioligand binding assay (ghrelin receptor), standard method A
Sequence of human growth hormone secretagogue receptor (hGHS-R1a) (Q92847 whole entry): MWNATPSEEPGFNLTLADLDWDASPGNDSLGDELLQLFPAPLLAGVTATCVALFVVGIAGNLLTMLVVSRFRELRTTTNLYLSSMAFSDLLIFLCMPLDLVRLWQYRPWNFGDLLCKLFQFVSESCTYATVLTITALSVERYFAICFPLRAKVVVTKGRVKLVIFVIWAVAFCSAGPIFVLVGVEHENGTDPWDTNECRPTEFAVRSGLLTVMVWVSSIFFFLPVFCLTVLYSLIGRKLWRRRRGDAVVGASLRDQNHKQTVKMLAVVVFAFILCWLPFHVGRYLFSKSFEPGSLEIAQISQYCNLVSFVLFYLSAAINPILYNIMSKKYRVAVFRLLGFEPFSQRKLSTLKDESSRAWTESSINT

fasted rats = assay: Gastric emptying in fasted rat model, standard method E; assay type: in vivo; details: average where repeated
Protocol: E. Gastric Emptying in Fasted Rat Model
To examine the effects of compounds of the invention in a model for gastroparesis, compounds were evaluated for possible effects on gastric emptying in fasted rats. This model is used to determine the potential of compounds of the invention to promote motility in fasted rats.
• 1. Overnight-fasted rats (male, Wistar, 200 g, n=5/group) were given a meal (2 mL) of methylcellulose (2%) by intragastric gavage. The meal was labeled with phenol red (0.05%). • 2. Test articles (dosed at various concentrations, typically 1, 3, 10, 30 mg/kg), vehicle and positive control (metoclopramide, a 5-HT ligand and prokinetic agent currently prescribed for the treatment of GI disorders, including gastroparesis) were administered by oral gavage immediately after the meal (time=0). • 3. […] Total phenol red remaining in the stomach was quantified by a colorimetric method at 560 nm. • 5. A 30% or more increase in gastric emptying (as compared to the vehicle control) was considered significant. • 6. One-way ANOVA, Dunnet's post-hoc statistical test was applied Results
The effects of representative compounds of the invention in the rat gastric emptying model described in standard method E are provided in the following table. In cases where an experiment was conducted multiple times, the average of the individual results is presented.

rat plasma = assay: Plasma protein binding, rat plasma; assay type: in vitro ADME
[3] = Pharmacokinetic analysis (oral bioavailability, elimination half-life) in the rat; assay type: in vivo; details: oral administration, 8 mg/kg dose, HPLC-MS
Excerpt: D. Pharmacokinetic Analysis of Representative Compounds of the Invention
The pharmacokinetic behavior of compound of the invention can be ascertained by methods well known to those skilled in the art. (Wilkinson, G. R. “Pharmacokinetics: The Dynamics of Drug Absorption, Distribution, and Elimination” in Goodman & Gilman's The Pharmacological Basis of Therapeutics, Tenth Edition, Hardman, J. G.; Limbird, L. E., Eds., McGraw Hill, Columbus, Ohio, 2001, Chapter 1.) The following method was used to investigate the pharmacokinetic parameters (elimination half-life, total plasma clearance, etc.) for intravenous, subcutaneous and oral administration of compounds of the present invention. See also U.S. patent application Ser. No. 11/149,512 and Ser. No. 11/149,731 and Intl. Pat. Appl. No. PCT/US2007/017905.
The table below presents oral bioavailability and elimination half-life data in the rat for representative compounds of the present invention. The parameters were determined by HPLC-MS after oral administration of an 8 mg/kg dose of the compound, except for compound 822 where a 2 mg/kg dose was used.

human plasma = assay: Plasma protein binding, human plasma (equilibrium dialysis); assay type: in vitro ADME
Excerpt: J. Plasma Protein Binding
The pharmacokinetic and pharmacodynamic properties of drugs are largely a function of the reversible binding of drugs to plasma or serum proteins such as albumin and α1-acid glycoprotein. In general, only unbound drug is available for diffusion or transport across cell membranes, and for interaction at the pharmacological target. On the other hand, drugs with low plasma protein binding generally have large volumes of distribution and rapid clearance since only unbound drug is available for glomerular filtration and, in some cases, hepatic clearance. Thus, the extent of plasma protein binding can influence efficacy, distribution and elimination. The ideal range for plasma protein binding is in the range of 87-98% for most drug products.
Protein binding studies were performed using human plasma. Briefly, 96-well microplates were used to incubate various concentrations of the test article for 60 min at 37° C. Bound and unbound fractions are separated by equilibrium dialysis, where the concentration remaining in the unbound fraction is quantified by LC-MS or LC-MS-MS analysis. […].
The table below presents protein binding data for representative compounds of the present invention in both human and rat plasma.

[4] = functional activity at the human ghrelin receptor, standard method B (Aequorin)
[5] = binding activity at the human ghrelin receptor, standard method A

Sequence of GHS-R1a receptor (human ghrelin receptor) (Q92847 whole entry): as above

Structure (SMILES)	EC50 [1, 4]	Ki [2, 5]	Elimination Half-life (t1/2, rat, min) [3]	Oral Bioavailability (rat, % F) [3]	Percent Increase in Gastric Emptying After Oral Administration (fasted rats; dose 3 mg/kg)	further results
CC1CNC(C2CC2)C(=O)N(C)C(C)C(=O)NC(CC(C)(C)C)C(=O)NCCCc2ccccc2O1 (stereo not shown) [Compound 1043]	≤ 100 nM	≤ 100 nM	–	–	–	–
C[C@@H]1CN[C@@H](C2CCCCC2)C(=O)N(C)[C@H](C)C(=O)N[C@H](Cc2ccc(O)cc2)C(=O)NCCCc2ncccc2O1 [Compound 1062]	≤ 50 nM	≤ 10 nM	–	–	–	–
CCN(CC)CCNC(=O)c1cc(Cl)c(N)cc1OC [metoclopramide]	–	–	–	–	–	Percent Increase in Gastric Emptying After Oral Administration (fasted rats; dose 30 mg/kg): 35%
CC1CNC(C2CCCCC2)C(=O)N(C)C(C)C(=O)NC(Cc2ccc(O)cc2)C(=O)NCCCC2CCCCC2O1 (mixture of isomers) [Compound 829]	–	≤ 1 nM	45 min	8 % F	28%	Human Plasma Protein Binding (%) (human plasma; test concentration 3 μg/mL): 91.6%
C[C@@H]1CNC(=O)[C@@H](Cc2ccc(F)cc2)NC(=O)[C@@H](C)N(C)C(=O)[C@H](C2CC2)NC[C@@H](C)Oc2ccccc2C1 [Compound 1033]	≤ 100 nM	≤ 100 nM	–	–	–	–
CC(C)C[C@H]1NC(=O)[C@@H](C)N(C)C(=O)[C@H](C2CC2)NCCOc2c(F)cccc2CCCNC1=O [Compound 813]	–	≤ 10 nM	31 min	4 % F	11%	–
CC1CNC(C2CC2)C(=O)N(C)C(C)C(=O)NC(CC(C)(C)C)C(=O)NCCCC2CCCCC2O1 (mixture of isomers) [Compound 833]	–	≤ 10 nM	–	–	6%	Rat Plasma Protein Binding (%) (rat plasma; test concentration 3 μg/mL): 94.0%; Human Plasma Protein Binding (%) (human plasma; test concentration 3 μg/mL): 77.4%
CC(C)C[C@H]1NC(=O)[C@@H](C)N(C)C(=O)[C@H](C2CCCCC2)NC[C@@H](C)Oc2cccnc2CCCNC1=O [Compound 1061]	≤ 100 nM	≤ 100 nM	23 min	4 % F	–	–
CC(C)[C@@H](O)[C@H]1NC(=O)[C@@H](C)N(C)C(=O)[C@H](C2CC2)NC[C@@H](C)Oc2ccccc2CCCNC1=O [Compound 1058]	≤ 100 nM	≤ 100 nM	–	–	–	–
CC(C)CC1NC(=O)C(C)N(C)C(=O)C(C2CC2)NC(C)C(C)Oc2ccccc2CCCNC1=O (stereo not shown) [Compound 819]	–	≤ 10 nM	116 min	12 % F	21%	Rat Plasma Protein Binding (%) (rat plasma; test concentration 3 μg/mL): 98.2%; Human Plasma Protein Binding (%) (human plasma; test concentration 3 μg/mL): 95.2%; Percent Increase in Gastric Emptying After Oral Administration (fasted rats; dose 1 mg/kg): 9%; Percent Increase in Gastric Emptying After Oral Administration (fasted rats; dose 10 mg/kg): 18%
C[C@@H]1C(=O)N[C@H](Cc2ccc(O)cc2)C(=O)NCCCc2ccc(F)c(F)c2OCCN[C@@H](C2CC2)C(=O)N1C [Compound 818]	–	≤ 10 nM	–	–	11%	–
CC1CNC(C2CC2)C(=O)N(C)C(C)C(=O)NC(Cc2ccc(O)c(F)c2)C(=O)NCCCC2CCCCC2O1 (mixture of isomers) [Compound 832]	–	≤ 1 nM	–	–	13%	Rat Plasma Protein Binding (%) (rat plasma; test concentration 3 μg/mL): 97.3%; Human Plasma Protein Binding (%) (human plasma; test concentration 3 μg/mL): 88.9%
CC1C(=O)NC(Cc2ccc(O)cc2)C(=O)NCCCC2CCCCC2OCCNC(C2CC2)C(=O)N1C (stereo not shown) [Compound 1118]	–	≤ 10 nM	–	–	–	Rat Plasma Protein Binding (%) (rat plasma; test concentration 3 μg/mL): 95.5%; Human Plasma Protein Binding (%) (human plasma; test concentration 3 μg/mL): 92.8%
C[C@@H]1CN[C@@H](C2CC2)C(=O)N(C)[C@H](C)C(=O)N[C@H]([C@H](C)c2ccc(F)cc2)C(=O)NCCCc2ccccc2O1 [Compound 1018]	≤ 400 nM	≤ 100 nM	–	–	–	–

More lines, main results first:

EC50 [1, 4]	Ki [2, 5]	Elimination Half-life (t1/2, rat, min) [3]	Oral Bioavailability (rat, % F) [3]	Structure (SMILES)	Percent Increase in Gastric Emptying After Oral Administration (fasted rats; dose 3 mg/kg)	further results
≤ 100 nM	≤ 100 nM	160 min	26 % F	CC(C)C[C@H]1NC(=O)[C@@H](C)N(C)C(=O)[C@H](C2CC2)NC[C@H]2CCc3cccc(c3O2)CCCNC1=O [Compound 802]	11%	Rat Plasma Protein Binding (%) (rat plasma; test concentration 1 μg/mL): 99.8%; Human Plasma Protein Binding (%) (human plasma; test concentration 1 μg/mL): 93.4%; Percent Increase in Gastric Emptying After Oral Administration (fasted rats; dose 1 mg/kg): 12%; Percent Increase in Gastric Emptying After Oral Administration (fasted rats; dose 10 mg/kg): 26%
–	≤ 100 nM	238 min	18 % F	C[C@@H]1CN[C@@H](C2CC2)C(=O)N(C)[C@H](C)C(=O)N[C@H](Cc2ccc(O)cc2)C(=O)N[C@@H](C)CCc2ccccc2O1 [Compound 808]	37%	Rat Plasma Protein Binding (%) (rat plasma; test concentration 5 μg/mL): 89.2%; Human Plasma Protein Binding (%) (human plasma; test concentration 5 μg/mL): 99.9%; Percent Increase in Gastric Emptying After Oral Administration (fasted rats; dose 1 mg/kg): 18%; Percent Increase in Gastric Emptying After Oral Administration (fasted rats; dose 10 mg/kg): 40%
≤ 400 nM	≤ 100 nM	–	–	CC[C@H](C)[C@@H]1NC[C@@H](C)Oc2ccccc2CCCNC(=O)[C@@H](Cc2cccnc2)NC(=O)[C@@H](C)N(C)C1=O [Compound 976]	–	–
≤ 400 nM	≤ 100 nM	103 min	26 % F	CC(C)C[C@H]1NC(=O)[C@@H](C)N(C)C(=O)[C@H](C2CC2)NC[C@@H](C)Oc2ccccc2CCCNC1=O [Compound 968]	–	–
≤ 50 nM	≤ 1 nM	–	–	C[C@@H]1CN[C@@H](C2CCCCC2)C(=O)N(C)[C@H](C)C(=O)N[C@H](Cc2ccc(F)cc2)C(=O)NCCCc2ccccc2O1 [Compound 982]	–	–
> 400 nM	≤ 100 nM	–	–	C[C@@H]1CN[C@@H](C2CC2)C(=O)N(C)[C@H](C)C(=O)N[C@H](Cc2cccnc2)C(=O)NCCCc2ccccc2O1 [Compound 975]	–	–
–	≤ 1 nM	120 min	15 % F	CC1CNC(C2CC2)C(=O)N(C)C(C)C(=O)NC(CC2CCCCC2)C(=O)NCCCC2CCCCC2O1 (mixture of isomers) [Compound 831]	32%	–
≤ 50 nM	≤ 1 nM	–	–	C[C@@H]1C(=O)N[C@H](Cc2ccc(F)cc2)C(=O)NCCCc2cccc3c2O[C@H](CC3)CN[C@@H](C2CC2)C(=O)N1C [Compound 1009]	–	–
–	–	–	15 % F	C[C@@H]1CN[C@@H](C2CC2)C(=O)N(C)[C@H](C)C(=O)N[C@H](Cc2ccc(Cl)cc2)C(=O)NCCCc2ccc(F)cc2O1 [Compound 877]	–	EC50 [1]: ≤ 50 nM; half-life ([3]; plasma, read-out: Elimination Half-life (t1/2, rat, min)): 255 min; Ki [2]: ≤ 100 nM
